Literature values as cited in PubChem BioAssay AID1259409 (Chemical Carcinogenesis Research Information System (CCRIS), 2018).

Test system: rodent chemically induced tumor inhibition, incidence and multiplicity
Assay: CCRIS tumor inhibitor studies
Conditions: Carcinogen: 7,12-DIMETHYLBENZ[A]ANTHRACENE, 57-97-6, Dose [Inhibitor]: 0, Route [Inhibitor]: ORAL, Species: FISH, FEMALE, Promoter: NONE USED

## O=c1oc2c(O)c(O)cc3c(=O)oc4c(O)c(O)cc1c4c23
1000 PPM IN DIET FOR 17 WK BEGINNING POST CARCINOGEN TREATMENT (STUDY DURATION: 42 WK), Strain/Sex: RAINBOW TROUT/ MALE, Target Tissue: Type of Lesion: SWIM BLADDER: TUMOR, Dose [Carcinogen]: 5.5 PPM IN WATER FOR 1 HR
  tumour outcome (control, treated, inhibition, significance): 15%, 6%, 60%, p<0.05
1000 PPM IN DIET FOR 17 WK BEGINNING POST CARCINOGEN TREATMENT (STUDY DURATION: 42 WK), Strain/Sex: RAINBOW TROUT/MALE, Target Tissue: Type of Lesion: LIVER: TUMOR, Dose [Carcinogen]: 5.5 PPM IN WATER FOR 1 HR
  tumour outcome (control, treated, inhibition, significance): 5%, 11%, -120%, p<0.05
1000 PPM IN DIET FOR DURATION OF STUDY BEGINNING CONCURRENTLY WITH CARCINOGEN TREATMENT (STUDY DURATION: 42 WK), Strain/Sex: RAINBOW TROUT/ MALE, Target Tissue: Type of Lesion: STOMACH: TUMOR, Dose [Carcinogen]: 750 PPM IN DIET FOR 7 WK
  tumour outcome (control, treated, inhibition, significance): 85%, 78%, 8%, p<0.05
1000 PPM IN DIET FOR DURATION OF STUDY BEGINNING CONCURRENTLY WITH CARCINOGEN TREATMENT (STUDY DURATION: 42 WK), Strain/Sex: RAINBOW TROUT/ MALE, Target Tissue: Type of Lesion: SWIM BLADDER: TUMOR, Dose [Carcinogen]: 750 PPM IN DIET FOR 7 WK
  tumour outcome (control, treated, inhibition, significance): 1%, 1%, 0%, not significant
1000 PPM IN DIET FROM 3 WK PRIOR TO CARCINOGEN TREATMENT TO 3 D POST CARCINOGEN TREATMENT (STUDY DURATION: 42 WK), Strain/Sex: RAINBOW TROUT/MALE, Target Tissue: Type of Lesion: LIVER: TUMOR, Dose [Carcinogen]: 4.16 PPM IN WATER FOR 1 HR
  tumour outcome (control, treated, inhibition, significance): 7%, 16%, -129%, p<0.001
1000 PPM IN DIET FROM 3 WK PRIOR TO CARCINOGEN TREATMENT TO 3D POST CARCINOGEN TREATMENT (STUDY DURATION: 42 WK), Strain/Sex: RAINBOW TROUT/MALE, Target Tissue: Type of Lesion: STOMACH: TUMOR, Dose [Carcinogen]: 4.16 PPM IN WATER FOR 1 HR
  tumour outcome (control, treated, inhibition, significance): 97%, 92%, 5%, not significant
1000 PPM IN DIET FROM 3 WK PRIOR TO CARCINOGEN TREATMENT TO 3 D POST CARCINOGEN TREATMENT (STUDY DURATION: 42 WK), Strain/Sex: RAINBOW TROUT/MALE, Target Tissue: Type of Lesion: SWIM BLADDER: TUMOR, Dose [Carcinogen]: 4.16 PPM IN WATER FOR 1 HR
  tumour outcome (control, treated, inhibition, significance): 14%, 50%, -257%, p<0.001
2000 PPM IN DIET FOR 17 WK BEGINNING POST CARCINOGEN TREATMENT (STUDY DURATION: 42 WK), Strain/Sex: RAINBOW TROUT/ MALE, Target Tissue: Type of Lesion: STOMACH: TUMOR, Dose [Carcinogen]: 5.5 PPM IN WATER FOR 1 HR
  tumour outcome (control, treated, inhibition, significance): 88%, 19%, 78%, p<0.001
2000 PPM IN DIET FOR 17 WK BEGINNING POST CARCINOGEN TREATMENT (STUDY DURATION: 42 WK), Strain/Sex: RAINBOW TROUT/ MALE, Target Tissue: Type of Lesion: SWIM BLADDER: TUMOR, Dose [Carcinogen]: 5.5 PPM IN WATER FOR 1 HR
  tumour outcome (control, treated, inhibition, significance): 15%, 6%, 60%, p<0.05
2000 PPM IN DIET FOR 17 WK BEGINNING POST CARCINOGEN TREATMENT (STUDY DURATION: 42 WK), Strain/Sex: RAINBOW TROUT/MALE, Target Tissue: Type of Lesion: LIVER: TUMOR, Dose [Carcinogen]: 5.5 PPM IN WATER FOR 1 HR
  tumour outcome (control, treated, inhibition, significance): 5%, 10%, -100%, p<0.05
2000 PPM IN DIET FROM 1 WK PRIOR TO CARCINOGEN TREATMENT TO 3 D POST CARCINOGEN (STUDY DURATION: 42 WK), Strain/Sex: RAINBOW TROUT/ MALE, Target Tissue: Type of Lesion: SWIM-BLADDER: TUMOR, Dose [Carcinogen]: 5.5 PPM IN WATER FOR 1 HR
  tumour outcome (control, treated, inhibition, significance): 15%, 7%, 53%, p<0.05
2000 PPM IN DIET FROM 1 WK PRIOR TO CARCINOGEN TREATMENT TO 3 D POST CARCINOGEN TREATMENT (STUDY DURATION: 42 WK), Strain/Sex: RAINBOW TROUT/ MALE, Target Tissue: Type of Lesion: LIVER: TUMOR, Dose [Carcinogen]: 5.5 PPM IN WATER FOR 1 HR
  tumour outcome (control, treated, inhibition, significance): 5%, 3%, 40%, not significant
